Laboratory results from ChEMBL document CHEMBL3588815, “Distinct Temporal Fingerprint for Cyclic Adenosine Monophosphate (cAMP) Signaling of Indole-2-carboxamides as Allosteric Modulators of the Cannabinoid Receptors” (J Med Chem, 2015).
The source made the active and inactive calls. The calls are words filed in the database; no cut-off is given here.

Legend:
[1] = molecular target: T1, Cannabinoid receptor 1 (Homo sapiens, UniProt P21554); assay: Allosteric modulator activity at hemagglutinin-tagged human CB1 receptor expressed in HEK293 cells assessed as effect on CP55,940-induced inhibition of forskolin-induced cAMP accumulation by kinetic cAMP assay; format: functional, cell-based
T1 sequence (P21554 whole entry): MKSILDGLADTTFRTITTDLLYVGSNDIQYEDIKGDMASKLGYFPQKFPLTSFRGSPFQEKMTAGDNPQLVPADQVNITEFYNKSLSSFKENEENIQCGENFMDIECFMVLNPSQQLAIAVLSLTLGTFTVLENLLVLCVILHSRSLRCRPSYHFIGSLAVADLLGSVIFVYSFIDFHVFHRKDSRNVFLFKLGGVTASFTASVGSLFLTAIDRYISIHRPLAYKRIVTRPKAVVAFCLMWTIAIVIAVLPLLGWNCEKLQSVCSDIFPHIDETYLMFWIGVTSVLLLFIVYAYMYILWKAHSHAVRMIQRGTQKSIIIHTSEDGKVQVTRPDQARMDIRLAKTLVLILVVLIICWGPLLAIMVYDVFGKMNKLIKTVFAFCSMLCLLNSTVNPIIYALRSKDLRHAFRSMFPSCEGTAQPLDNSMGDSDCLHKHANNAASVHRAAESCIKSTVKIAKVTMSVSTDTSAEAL

[2] = molecular target: T1, Cannabinoid receptor 1; assay: Allosteric agonist activity at hemagglutinin-tagged human CB1 receptor expressed in HEK293 cells assessed as effect on forskolin-induced cAMP accumulation at 10 uM by kinetic cAMP assay; format: functional, cell-based
[3] = molecular target: T2, Cannabinoid receptor 2 (Homo sapiens, UniProt P34972); assay: Allosteric modulator activity at hemagglutinin-tagged human CB2 receptor expressed in Flp-In-293 cells assessed as effect on CP55,940-induced inhibition of forskolin-induced cAMP accumulation by kinetic cAMP assay; format: functional, cell-based
T2 sequence (P34972 whole entry): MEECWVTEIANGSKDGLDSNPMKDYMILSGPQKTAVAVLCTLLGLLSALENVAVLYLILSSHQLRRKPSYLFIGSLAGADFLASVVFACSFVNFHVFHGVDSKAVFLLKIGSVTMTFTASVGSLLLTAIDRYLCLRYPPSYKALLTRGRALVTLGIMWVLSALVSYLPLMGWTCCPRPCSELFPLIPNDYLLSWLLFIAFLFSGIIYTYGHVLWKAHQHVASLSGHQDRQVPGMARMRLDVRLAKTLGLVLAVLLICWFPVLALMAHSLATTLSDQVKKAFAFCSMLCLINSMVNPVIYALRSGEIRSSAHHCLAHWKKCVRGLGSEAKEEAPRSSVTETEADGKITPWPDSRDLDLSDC

[4] = molecular target: T2, Cannabinoid receptor 2; assay: Allosteric agonist activity at hemagglutinin-tagged human CB2 receptor expressed in HEK293 cells assessed as effect on forskolin-induced cAMP accumulation at 10 uM by kinetic cAMP assay; format: functional, cell-based
[5] = molecular target: T1, Cannabinoid receptor 1; assay: Activity at hemagglutinin-tagged human CB1 receptor expressed in HEK293 cells assessed as effect on forskolin-induced cAMP accumulation in presence of CP55,940 by cAMP BRET assay; format: functional, cell-based
[6] = molecular target: T1, Cannabinoid receptor 1; assay: Activity at hemagglutinin-tagged human CB1 receptor expressed in HEK293 cells assessed as effect on forskolin-induced cAMP accumulation after 5 mins in presence of CP55,940 by cAMP BRET assay; format: functional, cell-based
[7] = molecular target: T1, Cannabinoid receptor 1; assay: Activity at hemagglutinin-tagged human CB1 receptor expressed in HEK293 cells assessed as effect on forskolin-induced cAMP accumulation after 10 mins in presence of CP55,940 by cAMP BRET assay; format: functional, cell-based
[8] = molecular target: T1, Cannabinoid receptor 1; assay: Activity at hemagglutinin-tagged human CB1 receptor expressed in HEK293 cells assessed as effect on forskolin-induced cAMP accumulation after 15 mins in presence of CP55,940 by cAMP BRET assay; format: functional, cell-based
[9] = molecular target: T1, Cannabinoid receptor 1; assay: Inverse agonist activity at hemagglutinin-tagged human CB1 receptor expressed in HEK293 cells assessed as effect on forskolin-induced cAMP accumulation after 5 to 15 mins in presence of CP55,940 by cAMP BRET assay; format: functional, cell-based
[10] = molecular target: T1, Cannabinoid receptor 1; assay: Activity at human CB1 receptor expressed in AtT20 cells assessed as effect on 1 uM CP55,940-induced peak hyperpolarization up to 10 uM by membrane potential assay; format: cell-based
[11] = molecular target: T1, Cannabinoid receptor 1; assay: Activity at human CB1 receptor expressed in AtT20 cells assessed as increase in rate of repolarization at 0.1 to 10 uM in presence of 1 uM CP55,940 by membrane potential assay; format: cell-based
[12] = molecular target: T1, Cannabinoid receptor 1; assay: Inverse agonist activity at hemagglutinin-tagged human CB1 receptor expressed in HEK293 cells assessed as increase in forskolin-induced cAMP accumulation in absence of CP55,940 at 10 uM and 31.6 uM by cAMP BRET assay; format: functional, cell-based
[13] = molecular target: T1, Cannabinoid receptor 1; assay: Slow antagonist/Inverse agonist activity at hemagglutinin-tagged human CB1 receptor expressed in HEK293 cells assessed as reversal of 1 uM CP55,940-induced inhibition of 5 uM forskolin-induced cAMP accumulation by kinetic cAMP assay; format: functional, cell-based
[14] = molecular target: T2, Cannabinoid receptor 2; assay: Activity at hemagglutinin-tagged human CB2 receptor expressed in HEK293 cells assessed as inhibition of forskolin-induced cAMP accumulation in absence of CP55,940 by cAMP BRET assay; format: functional, cell-based
[15] = molecular target: T2, Cannabinoid receptor 2; assay: Antagonist activity against hemagglutinin-tagged human CB2 receptor expressed in HEK293 cells assessed as suppression of CP55,940-induced inhibition of forskolin-induced cAMP accumulation by cAMP BRET assay; format: functional, cell-based
[16] = system: HEK293; assay: Reduction in cAMP accumulation in HEK293 cells by kinetic cAMP assay; format: ADME, cell-based; conditions: human
[17] = molecular target: T1, Cannabinoid receptor 1; assay: Inverse agonist activity at hemagglutinin-tagged human CB1 receptor expressed in HEK293 cells assessed as increase in forskolin-induced cAMP accumulation in absence of CP55,940 at 31.6 uM by cAMP BRET assay; format: functional, cell-based
[18] = molecular target: T2, Cannabinoid receptor 2; assay: Activity at hemagglutinin-tagged human CB2 receptor expressed in HEK293 cells assessed as increase in forskolin-induced cAMP accumulation in absence of CP55,940 by cAMP BRET assay; format: functional, cell-based

Row | Activity [1] | Activity [2] | Activity [3] | Activity [4] | EC50 [5] [nM] | EC50 [6] [µM] | EC50 [7] [nM] | EC50 [8] [nM] | Activity [9] | Activity [10] | Activity [11] | Activity [12] | EC50 ([5]; hek293) [nM] | EC50 ([7]; hek293) [nM] | inhibition [13] | EC50 [14] [nM] | Activity [17] | Activity [18] | Structure (SMILES) | inhibition [15] | Activity [16]
1 | Active | inactive | inactive | inactive |  |  |  |  |  |  |  |  |  |  |  |  |  |  | O=C(NCCc1ccc([N+](=O)[O-])cc1)c1cc2cc(Cl)ccc2[nH]1 |  | 
2 | Active | inactive | inactive | inactive | 790 | 1.01 | 600 | 470 | Active | inactive | Active |  |  |  |  |  |  |  | CCc1c(C(=O)NCCc2ccc(C)cc2)[nH]c2ccc(Cl)cc12 |  | 
3 | Active | inactive | inactive | inactive |  | < 10 |  | < 10000 |  |  |  |  | < 10000 | < 10000 |  |  |  |  | CCc1c(C(=O)OCCc2ccc(NC)cc2)[nH]c2ccc(Cl)cc12 |  | 
4 | inactive | inactive | inactive | Active |  |  |  |  |  |  |  |  |  |  |  | 130 |  |  | CCc1c(C(=O)OCCc2ccc(N3CCCCC3)cc2)[nH]c2ccc(Cl)cc12 |  | 
5 | Active | Active | inactive | Active | 4010 | 6.84 | 2990 | 3550 | Active | inactive | Active |  |  |  |  |  | Active | Active | CCc1c(C(=O)NCCc2ccc(N3CCCCC3)cc2)[nH]c2ccccc12 |  | 
6 | Active | inactive | inactive | inactive | 4990 | 7.37 | 4580 | 8960 | Active |  |  |  |  |  |  |  |  |  | CCc1c(C(=O)NCCc2ccc(F)cc2)[nH]c2ccc(Cl)cc12 |  | 
7 | Active | Active | inactive | inactive | 600 | 3.43 | 430 | 210 | Active |  |  | Active |  |  | Active |  |  |  | CCc1c(C(=O)NCCc2ccc(N(C)C)cc2)[nH]c2ccc(Cl)cc12 |  | 
8 | Active | Active | inactive | inactive | 2660 | 13.4 | 2970 | 1510 | Active |  |  | Active |  |  |  |  |  |  | CC(O)c1c(C(=O)NCCc2ccc(N3CCCCC3)cc2)[nH]c2ccc(Cl)cc12 (centres undefined) |  | 

Continued, molecule first:

Row | Structure (SMILES) | Activity [1] | Activity [2] | Activity [3] | Activity [4] | EC50 [5] [nM] | EC50 [6] [µM] | EC50 [7] [nM] | EC50 [8] [nM] | Activity [9] | Activity [10] | Activity [11] | Activity [12] | EC50 ([5]; hek293) [nM] | EC50 ([7]; hek293) [nM] | inhibition [13] | EC50 [14] [nM] | Activity [17] | Activity [18] | inhibition [15] | Activity [16]
9 | CCc1c(C(=O)NCCc2ccc(N3CCCCC3)cc2)[nH]c2ccc(Cl)cc12 | Active | Active | inactive | inactive | 2240 | 10.6 | 2090 | 640 | Active | inactive | Active | Active |  |  |  |  |  |  |  | 
10 | O=C(NCCc1ccc(N2CCCCC2)cc1)c1cc2cc(Cl)ccc2[nH]1 | inactive | inactive | inactive | inactive |  |  |  |  |  |  |  |  |  |  |  |  |  |  |  | 
11 | CCc1c(C(=O)NCCc2ccc(N3CCCC3)cc2)[nH]c2ccc(Cl)cc12 | inactive | inactive | inactive | inactive |  |  |  |  |  |  |  |  |  |  | Active |  |  |  |  | 
12 | CCc1c(C(=O)NCCc2ccc(Cl)cc2)[nH]c2ccc(Cl)cc12 | Active | inactive | inactive | inactive | 3420 | 8.18 | 1840 | 20000 | Active | inactive | Active |  |  |  |  |  |  |  |  | 
13 | CCc1c(C(=O)NCCc2ccc([N+](=O)[O-])cc2)[nH]c2ccc(Cl)cc12 | Active | Active | Active | inactive | 1140 | 3.59 | 660 | 440 | Active |  |  | Active |  |  | Active |  |  |  | Active | 
14 | O=C(NCCc1ccc(Cl)cc1)c1cc2cc(Cl)ccc2[nH]1 | inactive | inactive | inactive | inactive |  |  |  |  |  |  |  |  |  |  |  |  |  |  |  | 
15 | CCc1c(C(=O)NCCc2ccc(N)cc2)[nH]c2ccc(Cl)cc12 | inactive | Active | Active | Active |  |  |  |  |  |  |  |  |  |  |  |  |  |  |  | Toxic
